Measurements reported in US11447535B2, “GLP-1 analogues” (Sun Pharmaceutical Industries Limited, priority 2018, dated 2022).
Marks after values point to notes of the source that are not given here. Where no end group is shown, it is not given here. Moiety B = not defined here

Legend:
SD rats = experiment: Oral glucose tolerance test (OGTT) in rats; single injection; 1 mg/kg; type: in vivo; parameters: Change in AUC (mg/dL*min): unit not given here; conditions: for Blood Glucose AUC (mg/dL*min) Mean: Exp. 2; for Change in AUC (mg/dL*min): Exp. 2, vs control group
Method: (§1) Animals were divided into three groups—a normal control group, a test group and a third semaglutide group, with 4 animals in each group. The animals were fasted for 12 hours before initiation of OGTT. To the test group animals, the Compound 1 was injected subcutaneously at 1 mg/kg dose. To the semaglutide group, a dose of 1 mg/kg was injected subcutaneously. After 22 hrs, 166 hrs and 334 hrs of subcutaneous injection of test drug or semaglutide, blood glucose was measured with blood glucose meter (time 0 measurements). All the animals were then given 2 g/kg of glucose solution orally. Blood glucose was measured at 20, 40, 60, 90 and 120 minutes following glucose challenge. Body weight and food intake was recorded. Blood glucose data was analyzed using Two way ANOVA followed by Bonferroni posttests using PRISM (Graph Pad version 5.03). Data of Blood glucose AUC0-120 min, was analyzed using t test.
as §1, with “animals,” for “animals, the”, “1, Compound 13 and Compound 16 were” for “1 was”, “compound” for “drug”

[1] = test system: db/db mice (diabetic mouse model); experiment: Separate db/db diabetic mouse study, q2d*15 up to day 28, recovery period day 29 to day 45; type: in vivo; conditions: for Blood Glucose AUC (Day 30-37) % Change vs Control / Blood Glucose AUC (Day 30-37) (mg/dL*days) Mean / Blood Glucose AUC (Day 38-45) % Change vs Control / Blood Glucose AUC (Day 38-45) (mg/dL*days) Mean: recovery period
Method: The study was performed in similar manner as above on diabetic mouse model. The animals were divided into three treatment groups—a diabetic control group, a test group and a semaglutide treatment group. The representative compounds of the present disclosure, Compound 1, Compound 13 and Compound 16, were injected subcutaneously at 3.04 or 6.078 nM dose (every alternate day up to day 28 (q2d*15). The same dosage regimen was administered in semaglutide treatment group. Measurements of blood glucose levels and body weight were done daily. % HbA1c, Insulin was measured on Day 0, day 14 and day 29. Cumulative food intake and body weight change was calculated on day 14 and 29. % HbA1c, Insulin data was analyzed by two way ANOVA followed by Bonferroni's posttests using PRISM (Graph Pad version 5.03). Whereas Blood Glucose AUC, Body weight change and Cumulative food intake data was analyzed by one way ANOVA followed by Bonferroni's posttests using PRISM (Graph Pad version 5.03). From day 29 to day 45, animals were kept on recovery period during which no drug treatment was given. Blood Glucose and Body weight was measured during this period. On day 45, Body weight Changes, % HbA1c, Insulin was measured.

[2] = Food intake and body weight recorded in the rat OGTT study; type: in vivo, rats; conditions: 1 mg/Kg; for Body Weight Change (%) Mean / Food Consumption (g) Mean: Exp. 2
Method: as §1
as §1, with “animals,” for “animals, the”, “1, Compound 13 and Compound 16 were” for “1 was”, “compound” for “drug”

[3] = OGTT, 1 mg/Kg dose, after 24 hrs
[4] = earlier dose 3.04 nM (3.4 nM given for Compound 16)
[5] = recovery study, day 45, earlier dose 3.04 nM
[6] = recovery study, day 45, earlier dose 6.078 nM (6.0788 nM given for Compound 13)

Compound 6: SEQ ID NO: 10, Moiety B; differs from liraglutide in having an additional Leu at 32nd position (HAEGTFTSDVSSYLEGQAAK(Moiety B)EFIAWLVRGRGL-OH; reading uncertain)
% Glucose Reduction (Blood Glucose AUC0-120 min) (SD rats; [3]): 75.8% | Comp/std Liraglutide (ratio of % glucose reduction) (SD rats; [3]): 1.83 | blood glucose lowering effect vs liraglutide (SD rats; OGTT, 1 mg/Kg, at 24 hrs): significantly higher than liraglutide

Compound 16: SEQ ID NO: 05, acylated with Moiety D (HXXXGTFTSDVSSYLXGQAAXEFXAWLVRGRGXX; lipidated side chain; (2)..(2) Xaa = Aib; (3)..(3) Xaa = absent.; (4)..(4) Xaa = Glu.; (16)..(16) Xaa = Glu.; (21)..(21) Lys is substituted; (24)..(24) Xaa is Ile.; (33)..(33) Xaa is Leu.; (34)..(34) Xaa is absent.)
Blood Glucose AUC (Day 0-29) % Change Vs Control ([1]; 3.04 nM, q2d*15): −44.54% | Blood Glucose AUC (Day 0-29) (mg/dL*days) Mean ([1]; 3.04 nM, q2d*15): 9399.0*** mg/dL*days | Body Weight Change Day 29, % Change vs Day 0 Mean ([1]; 3.04 nM, q2d*15): −1.4% | Cumulative Food Intake (g) Day 0-29 Mean ([1]; 3.04 nM, q2d*15): 77.4 g | Blood Glucose AUC (Day 0-29) % Change Vs Control ([1]; 6.078 nM, q2d*15): −52.29% | Blood Glucose AUC (Day 0-29) (mg/dL*days) Mean ([1]; 6.078 nM, q2d*15): 8086.1***## mg/dL*days | Body Weight Change Day 29, % Change vs Day 0 Mean ([1]; 6.078 nM, q2d*15): −5.5% | Cumulative Food Intake (g) Day 0-29 Mean ([1]; 6.078 nM, q2d*15): 66.7 g | % HbA1C Mean ([1]; Day 0, 3.04 nM, q2d*15): 7.74% | Insulin (ng/mL) Mean ([1]; Day 0, 3.04 nM, q2d*15): 13.9 ng/mL | % HbA1C Mean ([1]; Day 0, 6.078 nM, q2d*15): 7.83% | Insulin (ng/mL) Mean ([1]; Day 0, 6.078 nM, q2d*15): 21.8 ng/mL | % HbA1C Mean ([1]; Day 14, 3.04 nM, q2d*15): 5.67 ***# % | Insulin (ng/mL) Mean ([1]; Day 14, 3.04 nM, q2d*15): 50.8* ng/mL | % HbA1C Mean ([1]; Day 14, 6.078 nM, q2d*15): 5.64 ***# % | Insulin (ng/mL) Mean ([1]; Day 14, 6.078 nM, q2d*15): 58.1** ng/mL | % HbA1C Mean ([1]; Day 29, 3.04 nM, q2d*15): 5.33 ***# % | Insulin (ng/mL) Mean ([1]; Day 29, 3.04 nM, q2d*15): 53.8** ng/mL | % HbA1C Mean ([1]; Day 29, 6.078 nM, q2d*15): 5.16 ***# % | Insulin (ng/mL) Mean ([1]; Day 29, 6.078 nM, q2d*15): 68.2*** ng/mL | HbA1c, blood glucose, food consumption and body weight vs control ([1]; about 3 nM and 6 nM dose): significant reduction | Blood Glucose AUC (Day 30-37) % Change vs Control [1, 4]: −32.62% | Blood Glucose AUC (Day 30-37) (mg/dL*days) Mean [1, 4]: 2420.0** mg/dL*days | Blood Glucose AUC (Day 38-45) % Change vs Control [1, 4]: −8.82% | Blood Glucose AUC (Day 38-45) (mg/dL*days) Mean [1, 4]: 3284.0* mg/dL*days | Blood Glucose AUC (Day 30-37) % Change vs Control ([1]; earlier dose 6.078 nM): −39.65% | Blood Glucose AUC (Day 30-37) (mg/dL*days) Mean ([1]; earlier dose 6.078 nM): 2167.7*** mg/dL*days | Blood Glucose AUC (Day 38-45) % Change vs Control ([1]; earlier dose 6.078 nM): −12.97% | Blood Glucose AUC (Day 38-45) (mg/dL*days) Mean ([1]; earlier dose 6.078 nM): 3134.7** mg/dL*days | % HbA1C Mean [1, 5]: 7.1* % | Delta HbA1C vs. DC [1, 5]: −1.4 | Insulin (ng/mL) Mean [1, 5]: 15.5 ng/mL | % HbA1C Mean [1, 6]: 7.2* % | Delta HbA1C vs. DC [1, 6]: −1.3 | Insulin (ng/mL) Mean [1, 6]: 18.4 ng/mL | Body Weight % Change vs Day 45 Mean ([1]; recovery study, earlier dose 3.04 nM): 6.1% | Body Weight % Change vs Day 45 Mean ([1]; recovery study, earlier dose 6.078 nM (6.0788 nM given for Compound 13)): 5.7% | Body Weight Change (%) Mean ([2]; 48 h): −10.7% | Food Consumption (g) Mean ([2]; 48 h): 5.9 g | Body Weight Change (%) Mean ([2]; 154 h): −7.0% | Body Weight Change (%) Mean ([2]; 324 h): −4.3% | Food Consumption (g) Mean ([2]; 324 h): 104.3 g | food consumed vs animals administered with semaglutide ([2]; text on Table 8): consumed significantly less food | lowering of body weight ([2]; text on Table 8): substantial lowering of body weight | Blood Glucose AUC (mg/dL*min) Mean (SD rats; OGTT, 1 mg/Kg, 22 hr): 1646 mg·min/dL | Change in AUC (mg/dL*min) (SD rats; OGTT, 1 mg/Kg, 22 hr): −80.7 | Blood Glucose AUC (mg/dL*min) Mean (SD rats; OGTT, 1 mg/Kg, 168 hr): 4283 mg·min/dL | Change in AUC (mg/dL*min) (SD rats; OGTT, 1 mg/Kg, 168 hr): −57.6 | Blood Glucose AUC (mg/dL*min) Mean (SD rats; OGTT, 1 mg/Kg, 336 hr): 8295.0 mg·min/dL | Change in AUC (mg/dL*min) (SD rats; OGTT, 1 mg/Kg, 336 hr): −2.3 | reduction in blood glucose AUC (SD rats; after 168 hrs of injection, 1 mg/kg): about 60%
